Data published in the supplement of paper PMC6723410.

System: GUMC-403
Experiment: viability at highest tested concentration (max response) relative to DMSO (% of DMSO control); higher = less cytotoxic
Details: library / dose series: MIPE library, 11-point 1:3 dilution, 48 h
Summary of the method: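 Patient-derived GUMC-403 papilloma cells grown by conditional reprogramming were plated at 700/well in 5 μL F + Y medium in 1536-well plates and incubated overnight at 37 °C. They then received 23 nL of MIPE 4.0 compounds by pin tool (11-point 1:3 series) for 48 h. CellTiter-Glo luminescence was read on a ViewLux and normalised with DMSO wells as 100% and empty wells as 0%. The value is viability at the highest tested concentration relative to DMSO control.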

SMILES	viability (top concentration 46.1 µM)	viability (top concentration 92.2 µM)
CC(=O)OCC(=O)[C@@]12OC(C)(C)O[C@@H]1C[C@H]3[C@@H]4C[C@H](F)C/5=C/C(=O)/C=C\[C@]5(C)[C@@]4(F)[C@@H](O)C[C@]23C	116	–
OC1=CC=C(C=C1)\C2=C(O)\C(=O)C3=C(O2)C=C(O)C=C3O	160	–
CN1C(=O)/C(=C(NC2=CC=C(I)C=C2F)\C3=C1\N=C/N(C[C@@H](O)CO)C3=O)F	28.9	–
FC(F)(F)c1ccc(/C=C/c2nc(COc3ccc(CCCCn4ccnn4)cc3)co2)cc1	98.1	–
NC/1=N/[C@]2(COC[C@H]2CS1)C3=CC(=CC=C3F)NC(=O)C4=NC=C(F)C=C4	117	–
CO[C@H]1C[C@@H]2CC[C@@H](C)[C@@](O)(O2)C(=O)C(=O)N2CCCC[C@H]2C(=O)O[C@H]([C@@H](C)C[C@@H]2CC[C@@H](O)[C@H](OC)C2)CC(=O)[C@H](C)/C=C(\C)[C@@H](O)[C@@H](OC)C(=O)[C@H](C)C[C@H](C)/C=C/C=C/C=C/1C	106	–
Clc1ccc(C2(c3ccc(-c4cn[nH]c4)cc3)CCNCC2)cc1	59.9	–
O=C(NOCC(O)CO)c1cc(Br)c(F)c(F)c1Nc1ccc(I)cc1F (stereo not drawn)	62.8	–
Oc1ccc2c3c1O[C@H]1c4[nH]c5c(c4C[C@@]4(O)[C@@H](C2)N(CC2CC2)CC[C@]314)C[C@@]1(O)[C@H]2Cc3ccc(O)c4c3[C@@]1(CCN2CC1CC1)[C@H]5O4	142	–
CN1CCN(C(=O)O[C@H]2c3nccnc3C(=O)N2c2ccc(Cl)cn2)CC1	117	–
CCCCCCCCCC(=O)N[C@@H](Cc1c[nH]c2ccccc12)C(=O)N[C@H](CC(N)=O)C(=O)N[C@@H](CC(=O)O)C(=O)N[C@@H]1C(=O)NCC(=O)N[C@@H](CCCN)C(=O)N[C@@H](CC(=O)O)C(=O)N[C@H](C)C(=O)N[C@@H](CC(=O)O)C(=O)NCC(=O)N[C@H](CO)C(=O)N[C@@H]([C@@H](C)CC(=O)O)C(=O)N[C@@H](CC(=O)c2ccccc2N)C(=O)O[C@@H]1C	101	–
N#Cc1ccc(Oc2ccc3c(c2)COB3O)cc1	124	–
C[C@]12CC[C@H]3[C@@H](CC(=C)\C4=C\C(=O)\C=C/[C@]34C)[C@@H]1CCC2=O	112	–
N/C(=N\C(=O)c1nc(Cl)c(N)nc1N)NCc1ccccc1	130	–
NC(=O)c1ncn([C@@H]2O[C@H](CO)[C@@H](O)[C@H]2O)c1N	118	–
CC1=C(/C=C/C(C)=C/C=C/C(C)=C\C(=O)O)C(C)(C)CCC1	90	–
CN(C)/[N+]([O-])=N/Oc1cc(ON[N+](=O)N2CCN(C(=O)c3cc(Cc4n[nH]c(=O)c5ccccc45)ccc3F)CC2)c([N+](=O)[O-])cc1[N+](=O)[O-]	108	–
COC/1=C/C=C2\C(=C/C1=O)[C@H](CCC3=CC(=C(OC)C(=C23)OC)OC)NC(C)=O	90.8	–
C[C@@H]1CC[C@H]2[C@@H](C)C(=O)O[C@@H]3O[C@@]4(C)CC[C@@H]1[C@]32OO4	109	–
N[S+]([O-])(=O)C1=C(Cl)C=C2\N=C/N[S+]([O-])(=O)C2=C1	127	–
CCN1\C=C(C(O)=O)/C(=O)C2=C1C(=C(N3CCNC(C)C3)C(=C2)F)F (stereo not drawn)	126	–
Cc1ccc(NC(=O)c2ccc(CN3CCN(C)CC3)cc2)cc1Nc1nc(-c2cccnc2)cs1	130	–
NNCCc1ccccc1	109	–
N#CC1(c2cccc(C(=O)Nc3cc(Oc4ccc5nc(NC(=O)C6CC6)sc5n4)ccc3F)c2Cl)CC1	71.8	–
C[C@H](CCC(=O)O)[C@H]1CC[C@H]2[C@@H]3[C@H](O)C[C@@H]4C[C@H](O)CC[C@]4(C)[C@H]3CC[C@]12C	128	–
CCN1CCN(C(=O)Cc2ccc(Nc3ncc(F)c(Nc4ccc(C(=O)Nc5ccccc5Cl)cc4)n3)cc2)CC1	55.5	–

SMILES	viability (top concentration 46.1 µM)	viability (top concentration 92.2 µM)
OC(=O)C(CC/1=C/C(=O)NC2=CC=CC=C12)NC(=O)C3=CC=C(Cl)C=C3 (stereo not drawn)	132	–
O=C(Nc1ccc(OC(F)(F)F)cc1)c1sccc1NCc1ccnc2ccccc12	91.2	–
CCCCOc1ccc(CC(=O)NO)cc1	109	–
COc1ccc(-c2oc3cc(OC)ccc3c2C(=O)c2ccc(C#N)cc2)cc1	142	–
COc1ccc(C(CN(C)C)C2(O)CCCCC2)cc1 (stereo not drawn)	100	–
O=C(c1ccc(F)cc1)N1CCC[C@H](c2nc(-c3ccc(F)cc3)no2)C1	119	–
Nc1nc(N)c2nc(CNc3ccc(C(=O)NC(CCC(=O)O)C(=O)O)cc3)cnc2n1 (stereo not drawn)	76.6	–
COc1cc(N2CCC(N3CCN(C)CC3)CC2)ccc1Nc1ncnc(Nc2ccccc2[S+](=O)([O-])C(C)C)n1	49.4	–
C[C@H]1[C@H](NC(=O)/C(=N/OC(C)(C)C(=O)O)c2csc(N)n2)C(=O)N1[S+](=O)([O-])O	114	–
CCC(C)(Oc1ccc(C2(c3ccc(OC(C)(CC)C(=O)O)cc3)CCCCC2)cc1)C(=O)O (stereo not drawn)	131	–
NC1=C(Cl)C(=CC=N1)OC2=C(F)C=C(NC(=O)\C3=C\N\C=C(C3=O)\C4=CC=C(F)C=C4)C=C2	108	–
COc1cc2nccc(Oc3ccc(NC(=O)Nc4ccc(F)cc4F)c(F)c3)c2cc1OC	91.3	–
C[C@H](CCC(=O)O)[C@H]1CCC2C3C[C@H](O)[C@@H]4C[C@H](O)CC[C@]4(C)C3CC[C@@]21C (stereo partly drawn)	108	–
NNc1nncc2ccccc12	117	–
CCNC(=O)C[C@@H]1\N=C(C2=CC=C(Cl)C=C2)/C3=C(C=CC(=C3)OC)[N]4C(=NN=C14)C	79.8	–
O=C(/C=C/c1c(C(=O)[O-])[nH]c2cc(Cl)cc(Cl)c12)Nc1ccccc1	111	–
O=C(NCc1ccccc1)c1csc(Nc2ccncn2)n1	110	–
CCC[C@H](N[C@@H](C)C(=O)N1[C@H](C(=O)O)C[C@@H]2CCCC[C@@H]21)C(=O)OCC	120	–
COC[C@H](c1ccc(C(F)(F)F)cc1)N1CCN(C2(C)CCN(C(=O)c3c(C)ncnc3C)CC2)C[C@H]1C.O=C(O)/C=C\C(=O)O	57.9	–
C=CC(=O)N1CCC[C@@H](n2nc(-c3ccc(Oc4ccccc4)cc3)c3c(N)ncnc32)C1	83.3	–
COC1=CC=CC=C1C2=CC=CC(=C2)C/3=C(O)/C4=CC(=C(Cl)C=C4NC3=O)C#N	–	142
CN(C/C=C/C#CC(C)(C)C)Cc1cccc2ccccc12	123	–
Cc1ccc(Nc2nccc(N(C)c3ccc4c(C)n(C)nc4c3)n2)cc1[S+](N)(=O)[O-]	117	–
C#CCN(C)[C@H](C)Cc1ccccc1	92.4	–
CNCc1ccc(-c2[nH]c3cc(F)cc4c3c2CCNC4=O)cc1	93.2	–
CN1CCC(CNc2ccc3ncc(-c4cccc(OC(F)(F)F)c4)n3n2)CC1	52.5	–

SMILES	viability (top concentration 46.1 µM)	viability (top concentration 92.2 µM)
CN(C)c1nc(Cc2ccc(NC(=O)c3ccc4ccccc4c3)cc2)nc(Cl)c1CC(=O)O	114	–
c1ccc2c(CCNc3ccc(Nc4ccncc4)cc3)c[nH]c2c1	108	–
Nc1ncnc2c1c(-c1cccc(OCc3ccccc3)c1)cn2C1CC(CN2CCCC2)C1 (stereo not drawn)	78.1	–
COc1cc(C)c(Sc2cnc(NC(=O)c3ccc(CNC(C)C(C)(C)C)cc3)s2)cc1C(=O)N1CCN(C(C)=O)CC1 (stereo not drawn)	71.7	–
CC(C)(C)c1cc(C(=O)O)c(NC(=O)Nc2ccc3[nH]ncc3c2)s1	87.6	–
O=C(O)c1nn(Cc2ccc(Cl)cc2Cl)c2ccccc12	99.7	–
CC(c1cc2ccccc2s1)N(O)C(N)=O (stereo not drawn)	96.7	–
COc1cc(CCc2cc(NC(=O)c3ccc(N4C[C@@H](C)N[C@@H](C)C4)cc3)n[nH]2)cc(OC)c1	81.8	–
CNC[C@H](O)[C@@H](O)[C@H](O)[C@H](O)CO	136	–
CCOC(=O)C(C#N)C\1C2=CC(=CC=C2O\C(=C1C(=O)OCC)N)Br (stereo not drawn)	120	–
CC(=O)O[C@H]1C[C@@H]2CC[C@@H]3[C@H](CC[C@@]4(C)[C@H]3C[C@H]([N+]3(C)CCCCC3)[C@@H]4OC(C)=O)[C@@]2(C)C[C@@H]1[N+]1(C)CCCCC1	122	–
O=C1Nc2cc(Br)ccc2/C1=C1/Nc2ccccc2/C1=N\O	31.3	–
CN(C)c1ccc(-c2nc3c(N4CCN(CC(=O)Nc5nccs5)CC4)c(Cl)cnc3[nH]2)cc1	110	–
CC(C)C[C@H](CN)CC(=O)O	117	–
O=[N+]([O-])c1cn2c(n1)OC[C@@H](OCc1ccc(OC(F)(F)F)cc1)C2	111	–
COC(=O)C/1=C(C)/N/C(=C(\C1C2=CC(=CC=C2)[N+]([O-])=O)C(=O)OCCCN3CCC(CC3)(C4=CC=CC=C4)C5=CC=CC=C5)C (stereo not drawn)	128	–
O=C(Oc1ccc([N+](=O)[O-])cc1)N1CCN(Cc2cccc(Oc3ccccc3)c2)CC1	63.7	–
NC(=O)c1cccc2nc(-c3ccc([C@H]4CCCN4)cc3F)[nH]c12	116	–
CC1=C(/C=C/C(C)=C/C=C/C(C)=C/C=C/C=C(C)/C=C/C=C(C)/C=C/C2=C(C)CCCC2(C)C)C(C)(C)CCC1	113	–
C=CC(=O)Nc1ccc2ncnc(Nc3ccc(OCc4cccc(F)c4)c(Cl)c3)c2c1	26.3	–
NC(=O)Nc1sc(-c2ccc(F)cc2)cc1C(N)=O	51.7	–
OC[C@H]1O[C@@H](Oc2ccc(O)cc2)[C@H](O)[C@@H](O)[C@@H]1O	99.9	–
CC1COC2(CCN(CC2)C/3=N/C(=O)C4=CC(=CC(=C4S3)[N+]([O-])=O)C(F)(F)F)O1 (stereo not drawn)	122	–
NC(=O)c1cccnc1	136	–
CN1\C(=C(\O)C2=C(C=CC=C2)[S+]1([O-])=O)C(=O)NC3=CC=CC=N3	99	–
NCC/1=C/NC(=S)N1[C@H]2CCC3=C(F)C=C(F)C=C3C2	95.9	–
